According to US20060069132A1, “Azolecarboxamide herbicides” (priority 2004, published 2006):

Legend:
[1] = test system: rice; test: Test B flooded paddy test; format: in vivo, Oryza sativa; details: 1000 g ai/ha, scale 0 to 100 (0 no effect, 100 complete control)
Method in brief: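 Treated at 2-leaf (paddy) or 1–4-leaf, 2–18 cm (postemergence); greenhouse 13–15 d; visual score vs control, 0 none to 100 complete control; dash = not tested.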

[2] = test system: large crabgrass; test: Test B pre-/postemergence herbicide test; format: in vivo, Digitaria sanguinalis; details: for Crabgrass, Large plant response rating: postemergence
Method in brief: (§1)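 Herbicidal effect was judged by eye on a 0–100 scale after plants stood 13 to 15 days in the greenhouse following pre- or postemergence treatment with surfactant-containing formulations.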

[3] = test system: morningglory; test: Test B pre-/postemergence herbicide test; format: in vivo, Ipomoea coccinea; details: for Morningglory plant response rating: postemergence
Method in brief: (§2)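 Flooded paddy rice and barnyardgrass were treated at the 2-leaf stage; upland plantings received compound either on sown seed or on 1- to 4-leaf seedlings. All were kept 13–15 days in a greenhouse and scored visually, 0–100, relative to untreated plants.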

[4] = test system: cocklebur; test: Test B pre-/postemergence herbicide test; format: in vivo, Xanthium strumarium; details: for Cocklebur plant response rating: postemergence
Method in brief: as §2

[5] = test system: pigweed; test: Test B pre-/postemergence herbicide test; format: in vivo, Amaranthus retroflexus; details: for Pigweed plant response rating: postemergence
Method in brief: as §1

[6] = test system: lambsquarters; test: Test B pre-/postemergence herbicide test; format: in vivo, Chenopodium album; details: for Lambsquarters plant response rating: postemergence
Method in brief: as §1

[7] = test system: barnyardgrass; test: Test B pre-/postemergence herbicide test; format: in vivo, Echinochloa crus-galli; details: for Barnyardgrass plant response rating: postemergence
Method in brief: as §2

[8] = test system: Surinam grass; test: Test B pre-/postemergence herbicide test; format: in vivo, Urochloa decumbens; details: for Surinam Grass plant response rating: postemergence
Method in brief: as §1

[9] = test system: barnyardgrass; test: Test B flooded paddy test; format: in vivo, Echinochloa crus-galli; details: 1000 g ai/ha, scale 0 to 100 (0 no effect, 100 complete control)
Method in brief: (§3)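 After treating 2-leaf paddy plants or 2–18 cm postemergence plants (1 to 4 leaves) with formulated chemical, researchers kept them in a greenhouse for 13–15 days. Effects were judged visually versus controls: 0 indicates none, 100 total control.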

[10] = test system: small flower umbrella sedge; test: Test B flooded paddy test; format: in vivo, Cyperus difformis; details: 1000 g ai/ha, scale 0 to 100 (0 no effect, 100 complete control)
Method in brief: as §3

[11] = test system: ducksalad; test: Test B flooded paddy test; format: in vivo, Heteranthera limosa; details: 1000 g ai/ha, scale 0 to 100 (0 no effect, 100 complete control)
Method in brief: as §3

[12] = test system: velvetleaf; test: Test B pre-/postemergence herbicide test; format: in vivo, Abutilon theophrasti; details: for Velvetleaf plant response rating: postemergence
Method in brief: as §1

[13] = test system: wild oat; test: Test B postemergence herbicide test; format: in vivo, Avena fatua; details: postemergence
Method in brief: (§4)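 Plants grow to 1- to 4-leaf stage (2–18 cm) for postemergence spraying, or to 2-leaf stage for the paddy test. Formulated compound is applied. Greenhouse holding lasts 13–15 days. Response is scored visually relative to controls, 0 no effect to 100 complete control; a dash means no result.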

[14] = test system: giant foxtail; test: Test B pre-/postemergence herbicide test; format: in vivo, Setaria faberi; details: for Foxtail, Giant plant response rating: postemergence
Method in brief: as §1

[15] = test system: wheat; test: Test B postemergence herbicide test; format: in vivo, Triticum aestivum; design: key to Wheat plant response rating: 0 = no effect, 100 = complete control; details: postemergence
Method in brief: as §4

[16] = 125 g ai/ha, 0 is no effect, 100 is complete control, preemergence
[17] = 125 g ai/ha, visual rating, scale 0 (no effect) to 100 (complete control)
[18] = 500 g ai/ha, visual rating, 0 = no effect, 100 = complete control, preemergence
[19] = 500 g ai/ha, scale 0 to 100, 0 is no effect, 100 is complete control

What does the source list for `CCn1nc(C(C)(C)C)cc1C(=O)Nc1cccc(OC(F)(F)C(F)F)c1` [Compound 333]?
Rice plant response rating [1]: 20; Plant response rating (0 to 100 scale), Crabgrass, Large [2, 16]: 40; Crabgrass, Large plant response rating [2, 17]: 40; Plant response rating, Crabgrass, Large [2, 18]: 70; Crabgrass, Large plant response rating [2, 19]: 100; Plant response rating (0 to 100 scale), Morningglory [3, 16]: 0; Morningglory plant response rating [3, 17]: 30; Plant response rating, Morningglory [3, 18]: 10; Morningglory plant response rating [3, 19]: 60; Plant response rating (0 to 100 scale), Cocklebur [4, 16]: 0; Cocklebur plant response rating [4, 17]: 20; Plant response rating, Cocklebur [4, 18]: 0; Cocklebur plant response rating [4, 19]: 80; Plant response rating (0 to 100 scale), Pigweed [5, 16]: 90; Pigweed plant response rating [5, 17]: 90; Plant response rating, Pigweed [5, 18]: 100; Pigweed plant response rating [5, 19]: 100; Plant response rating (0 to 100 scale), Lambsquarters [6, 16]: 40; Lambsquarters plant response rating [6, 17]: 90; Plant response rating, Lambsquarters [6, 18]: 100; Lambsquarters plant response rating [6, 19]: 100; Plant response rating (0 to 100 scale), Barnyardgrass [7, 16]: 0; Barnyardgrass plant response rating [7, 17]: 10; Plant response rating, Barnyardgrass [7, 18]: 20; Barnyardgrass plant response rating [7, 19]: 40; Plant response rating (0 to 100 scale), Surinam Grass [8, 16]: 10; Surinam Grass plant response rating [8, 17]: 20; Plant response rating, Surinam Grass [8, 18]: 20; Surinam Grass plant response rating [8, 19]: 30; Barnyardgrass plant response rating [9]: 50; Sedge, Umbrella plant response rating [10]: 80; Ducksalad plant response rating [11]: 80; Plant response rating (0 to 100 scale), Velvetleaf [12, 16]: 10; Velvetleaf plant response rating [12, 17]: 50; Velvetleaf plant response rating [12, 19]: 60; Oat, Wild plant response rating [13, 17]: 40; Oat, Wild plant response rating [13, 19]: 60; Plant response rating (0 to 100 scale), Foxtail, Giant [14, 16]: 10; Foxtail, Giant plant response rating [14, 17]: 30; Plant response rating, Foxtail, Giant [14, 18]: 20; Foxtail, Giant plant response rating [14, 19]: 40; Wheat plant response rating [15, 17]: 20; Wheat plant response rating [15, 19]: 30
